Laboratory results published in patent publication US20090054376A1, “BENZOFURAN DERIVATIVES WITH THERAPEUTIC ACTIVITIES” (Pharmos Corporation, priority 2005, published 2009).
Read-outs that look alike come from different tables or passages of the source.

Experiments:
[1] = tested on: COX-2; test: Gene expression in LPS activated RAW 264.7 macrophages, COX-2; assay type: cell-based, mouse; conditions: RAW 264.7, 10 μM, LPS 1 μg/ml, RNA 3 hrs after activation, vs vehicle treated activated cells
Experimental: (§1) RAW 264.7 macrophages, a mouse cell line (ATCC # TIB 71), were grown in Dulbecco's modified Eagle's medium (DMEM) with 4 mM L-glutamine adjusted to contain 1.5 g/L sodium bicarbonate, 4.5 g/L glucose, and 10% heat inactivated fetal bovine serum. Cells were grown in tissue culture flasks and seeded at appropriate density into 6 wells tissue culture plates. Four million Raw cells in half a milliliter were stimulated with 1 μg/ml LPS E. coli 055:B5 (DIFCO Laboratories). The mouse macrophages were pre-treated for one hour with controls or 10 μM of test compounds, and later on activated with LPS. RNA samples were extracted from the cells 3 hrs after activation and gene expression levels were analyzed by real-time RT-PCR. In parallel, supernatants were collected and secretion of inflammatory mediators was analyzed using ELISA techniques according to the instructions of the kit manufacturer.
(§2) Total RNA is prepared using SV total RNA isolation system (Promega). The cells were homogenized in lysis buffer. The lysates were transferred to an RNA isolation column, treated with DNAse, washed and eluted according to kit instructions. RNA concentrations were determined using GeneQuant II (Pharmacia-Amersham). Complementary DNA (cDNA) was synthesized from total RNA using […] II reverse transcriptase (Life Technologies). 2 μg of total RNA were combined with an oligo (dT)15 primer, 0.5 mM dNTP mix, 8 units of reverse transcriptase and other reaction components up to a final volume of 20 μl, according to the kit instructions. The reaction mixture was incubated at 42° C. for 45 min and inactivated at 70° C. for 15 minutes. Quantitative real-time RT-PCR included 1 μl of the cDNA, 300 nM of the appropriate forward and reverse primers (according to the gene monitored) and 7.5 μl of the reaction mix containing buffer, nucleotides, Taq polymerase and SYBER green (SYBER Green master mix, Applied Biosystems), in a total reaction volume of 15 μl. Gene amplification was obtained using the GeneAmp 5700 sequence detection system (Applied Biosystems). Amplification included one stage of 10 minutes at 95° C. followed by 40 cycles of a 2-steps loop: 20 seconds at 95° C., and 1 minute at 60° C. During each annealing step, the amount of the amplified product was measured by the fluorescence of the double strand DNA binding dye, SYBER Green. The cycle of threshold (CT), representing the PCR cycle at which an increase in fluorescence above a baseline signal can be first detected, was determined for each product. A delay of one PCR cycle in the CT is translated into a two-fold decrease in starting template molecules and vice versa. The changes in the CT of the specific gene product were normalized to the changes in the CT of housekeeping cyclophilin or GAPDH as reference genes. Results were expressed as fold increase of gene expression in treated or untreated activated cells above the resting cells, after normalization to cyclophilin or GAPDH. Cells were also tested for viability to confirm that any effect on gene expression was indeed due to modulation of transcription of a specific target and not to cytoxicity.
(§3) Results were further expressed as percent inhibition of gene expression in compound treated activated cells over vehicle “treated” activated cells. Since the modulation of IL-10 and TNF-α gene expression by the compounds of the invention is relatively minor, it is not reported. […] Inhibition above 50% was considered significant.

[2] = tested on: IL-1β; test: Gene expression in LPS activated RAW 264.7 macrophages, IL-1β; assay type: cell-based, mouse; conditions: RAW 264.7, 10 μM, LPS 1 μg/ml, RNA 3 hrs after activation, vs vehicle treated activated cells
Experimental: as §1, §2, §3

[3] = tested on: iNOS; test: Gene expression in LPS activated RAW 264.7 macrophages, iNOS; assay type: cell-based, mouse; conditions: RAW 264.7, 10 μM, LPS 1 μg/ml, RNA 3 hrs after activation, vs vehicle treated activated cells
Experimental: as §1, §2, §3

[4] = tested on: MCP-1; test: Gene expression in LPS activated RAW 264.7 macrophages, MCP-1; assay type: cell-based, mouse; conditions: RAW 264.7, 10 μM, LPS 1 μg/ml, RNA 3 hrs after activation, vs vehicle treated activated cells
Experimental: as §1, §2, §3

[5] = tested on: carrageenan induced inflammatory pain and paw edema; test: Inflammatory pain and paw edema induced by carrageenan; assay type: in vivo, Male Sprague Dawley rats; conditions: for inhibition in vivo at 10 mg/kg / inhibition in vivo at 3 mg/kg: Rattus norvegicus, ip; for inhibition in vivo at 3 mg/kg: 3 mg/kg i.p. (one asterisk)
Procedure, shortened: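 Male Sprague Dawley rats (~200 g) received 0.1 ml 2% λ-carrageenan subplantar in the right paw; compounds given i.p. at 3, 10 or 20 mg/kg (some p.o.) immediately after. Thermal (Hargreaves) latency, mechanical threshold, paw thickness and volume measured at 0 and 3 h; values are inter-paw differences ([…], ΔForce), volume as % of vehicle.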

[6] = 10 mg/kg i.p., 3 hours after carrageenan, reduction in paw swelling, read-out: Percent Inhibition of Inflammatory Pain Responses, Edema
[7] = 10 mg/kg i.p., 3 hours, mechanical stimulus, read-out: Percent Inhibition of Inflammatory Pain Responses, ΔForce
[8] = 10 mg/kg i.p., 3 hours, thermal stimulus, read-out: Percent Inhibition of Inflammatory Pain Responses, ΔLT

Row | Structure (SMILES) | Percent inhibition of gene expression, COX-2 [1] | Percent inhibition of gene expression, IL-1β [2] | Percent inhibition of gene expression, iNOS [3] | Percent inhibition of gene expression, MCP-1 [4] | inhibition in vivo at 10 mg/kg [5, 6] [%] | inhibition in vivo at 10 mg/kg [5, 7] [%] | inhibition in vivo at 10 mg/kg [5, 8] [%] | reduction of paw swelling ([5]; 5 mg/kg p.o.) [%] | reduction of paw swelling ([5]; 20 mg/kg p.o.) [%] | inhibition in vivo at 3 mg/kg ([5]; 3 hours, mechanical stimulus, read-out: Percent Inhibition of Inflammatory Pain Responses, ΔForce) [%] | inhibition in vivo at 3 mg/kg ([5]; 3 hours, reduction in paw swelling, read-out: Percent Inhibition of Inflammatory Pain Responses, Edema) [%] | inhibition in vivo at 3 mg/kg ([5]; 3 hours, thermal stimulus, read-out: Percent Inhibition of Inflammatory Pain Responses, ΔLT) [%] | Percent Inhibition of Inflammatory Pain Responses, Edema ([5]; 10 mg/kg i.p., 3 hours after carrageenan, reduction in paw swelling) [%] | Percent Inhibition of Inflammatory Pain Responses, ΔForce ([5]; 10 mg/kg i.p., 3 hours, mechanical stimulus) [%] | Percent Inhibition of Inflammatory Pain Responses, ΔLT ([5]; 10 mg/kg i.p., 3 hours, thermal stimulus) [%]
1 | CCCCCCC(C)(C)c1cc(O)c2c3c(oc2c1)C(=O)CCC3(C)C [Compound C6M-9, 7-(1,1-Dimethylheptyl)-9-hydroxy-1,1-dimethyl-2,3-dihydro-1H-dibenzofuran-4-one] | 50% | NO (NO indicates that the compound tested did not significantly affect the transcription of the gene assessed and that its activity is comparable to vehicle, within ±20% from this control) | 32% | 37% | 49 | 27 | 75 |  |  |  |  |  |  |  | 
2 | CCCCCCC(C)(C)c1cc(O)c2c(c1)OC1C=CCCC21 (stereo not shown) [Compound C6S-2, 3-(1,1-Dimethylheptyl)-5a,8,9,9a-tetrahydro-dibenzofuran-1-ol] | 61% | 58% | 23% | 44% | 36 | 30 | 58 |  |  |  |  |  |  |  | 
3 | CCCCC(C)(C)c1cc(O)c2c(c1)OC1(C)CCCC21 (stereo not drawn) [Compound C5S-1, 6-(1,1-dimethylpentyl)-8a-methyl-2,3,3a,8a-tetrahydro-1H-8-oxa-cyclopenta[α]inden-4-ol] | 29% | 47% | 37% | NO (NO indicates that the compound tested did not significantly affect the transcription of the gene assessed and that its activity is comparable to vehicle, within ±20% from this control) |  |  |  |  |  |  |  |  |  |  | 
4 | CCCCC(C)(C)c1cc(O)c2c(c1)OC1C2CCC(C)(C)C1O (stereo not shown) [Compound C6S-7, 3-(1,1-dimethylpentyl)-7,7-dimethyl-5a,6,7,8,9,9a-hexahydro-dibenzofuran-1,6-diol] |  |  |  |  |  | 41 | 54 |  |  |  |  |  |  |  | 
5 | CCCCC(C)(C)c1cc(O)c2c(c1)OC1CCCCC21 (stereo not shown) [Compound C6S-3, 3-(1,1-dimethylpentyl)-5a,6,7,8,9,9a-hexahydro-dibenzofuran-1-ol] | 65% | 74% | 68% | 55% | 48 | 49 | 84 |  |  |  |  |  |  |  | 
6 | CCCCCCC(C)(C)c1cc(O)c2c(c1)OC1C(O)CCCCC21 (stereo not drawn) [Compound C7S-2, 2-(1,1-dimethylheptyl)-5,6,7,8,9,9a-hexahydro-4bH-10-oxa-benzo[α]azulen-4,9-diol] | 26% | NO (NO indicates that the compound tested did not significantly affect the transcription of the gene assessed and that its activity is comparable to vehicle, within ±20% from this control) | NO (NO indicates that the compound tested did not significantly affect the transcription of the gene assessed and that its activity is comparable to vehicle, within ±20% from this control) | NO (NO indicates that the compound tested did not significantly affect the transcription of the gene assessed and that its activity is comparable to vehicle, within ±20% from this control) |  |  |  | 41 | 50 | 66 | 56 | 66 |  |  | 
7 | CCCCCCC(C)(C)c1cc(O)c2c(c1)OC1(C)CCCC21 (stereo not drawn) [Compound C5S-2, 6-(1,1-dimethylheptyl)-8a-methyl-2,3,3a,8a-tetrahydro-1H-8-oxa-cyclo-penta[α]inden-4-ol] | NO (NO indicates that the compound tested did not significantly affect the transcription of the gene assessed and that its activity is comparable to vehicle, within ±20% from this control) | 81% | NO (NO indicates that the compound tested did not significantly affect the transcription of the gene assessed and that its activity is comparable to vehicle, within ±20% from this control) | NO (NO indicates that the compound tested did not significantly affect the transcription of the gene assessed and that its activity is comparable to vehicle, within ±20% from this control) |  |  |  |  |  |  |  |  | 48 | 8 | 43
